Values joined by “and” are separate entries in the source; they are usually repeats but may differ in a detail not shown here. Equal entries are not always repeated. Structures can show the parent of a compound that is named as a salt.

In the first experiment the test system is XBP1s-luc 293 LUC. Briefly: cellular PD assay, XBP1s-LUC reporter (Example 903). In kind it is cell-based. To be noted: Table 1; read-out: XBP1s-luc 293 LUC (IC50). Here is the method: Inhibition of IRE1α RNase activity was determined in an enzyme assay that measured cleavage of the XBP1 stem loop by autophosphorylated IRE1α. This assay format was chosen to ensure that inhibitors of either the IRE1α kinase or the RNase domains would be identified. Binding to the ATP pocket and inhibition of IRE1α kinase activity are not necessarily required to inhibit the RNase activity. Compounds were also profiled in cellular assays by direct measurement of XBP s (B-DNA assay) or by quantification of the luciferase signal in HT1080 XBP1-Luc, which carries a luciferase fusion that is only in frame and expressed from the spliced XBP1 transcript.
Biological activity of Formula I or I′ compounds was measured by an IRE1 biochemical binding assay (Example 901), a biochemical RNase assay (Example 902), a cellular PD assay, XBP1s-LUC reporter (Example 903), and an IRE1α-based inhibition of multiple myeloma (MM) cell proliferation assay.
All of the exemplary Formula I or I′ compounds in Tables 1 and 2 were made and characterized by LCMS [M+H]^+ (liquid chromatography mass spectroscopy) with detection of parent ion. All of the exemplary Formula I compounds in Tables 1 and 2 were prepared according to the procedures of the Schemes, General Procedures, and Examples. All of the exemplary Formula I or I′ compounds in Tables 1 and 2 were tested for binding to IRE1 (inositol requiring enzyme 1 alpha) and biological activity according to the assays and protocols of Example 901-903. Exemplary Formula I or I′ compounds in Tables 1 and 2 have the following structures, corresponding IUPAC names (ChemBioDraw, Version 12.0.2, CambridgeSoft Corp., Cambridge Mass.), and biological activity. Where more than one name is associated with a Formula I or I′ compound or intermediate in Tables 1 and 2 and the Experimental Procedures, the chemical structure shall define the compound. Assignment of configuration at chiral centers in separated stereoisomers may be tentative, and depicted in Tables 1 and 2 structures for illustrative purposes, before stereochemistry is definitively established, such as from x-ray crystallographic data. In some cases, stereoisomers are separated and tested for biological activity before the stereochemistry of the separated stereoisomers is determined; and stereochemistry in some instances was inferred based on structure-activity relationship (SAR) knowledge from previous compounds. In some cases, the compounds are tested as racemic or diastereomeric mixtures. Where more than one potency value is entered on a row, separated stereoisomers represented by the structure and name on that row were tested. Exemplary compounds of Formula I or I′ in Table 3 can be prepared using methods known in the art or according to procedures similar to those described in the Schemes, General Procedures, and Examples 101-500. Biological activities of compounds in Table 3 can be tested in biological assays, for example, those in Examples 901, 902 and 903 described herein.
In the case of `Cc1ccc2c(NCc3cscn3)cccc2c1Oc1ncccc1-c1ccnc(N[C@H]2CCCNC2)n1` [Example 211, (S)-4-(2-((2-Methyl-5-((thiazol-4-ylmethyl)amino)naphthalen-1-yl)oxy)pyridin-3-yl)-N-(piperidin-3-yl)pyrimidin-2-amine], the concentration for half-maximal inhibition (IC50) was 70 nM. The same measure, in the same setting: in the case of `Cc1ccc2c(NC[C@H](O)c3ccccc3)cccc2c1Oc1ncccc1-c1ccnc(N[C@H]2CCCNC2)n1` [Example 309, (R)-2-((6-Methyl-5-((3-(2-((S)-piperidin-3-ylamino)pyrimidin-4-yl)pyridin-2-yl)oxy)naphthalen-1-yl)amino)-1-phenylethanol] it was 433 nM. The same measure, in the same setting: with `Cc1ccc2c(NC(=O)CC#N)cccc2c1Oc1ncccc1-c1ccnc(N[C@H]2CCCNC2)n1` [Example 183, (S)-2-Cyano-N-(6-methyl-5-((3-(2-(piperidin-3-ylamino)pyrimidin-4-yl)pyridin-2-yl)oxy)naphthalen-1-yl)acetamide] the figure was 260 nM; with `Cc1ccc2c(NS(=O)(=O)Cc3ccccc3)cccc2c1Oc1ncccc1-c1ccnc(N[C@H]2CCCNC2)n1` [Example 112, (S)—N-(6-Methyl-5-((3-(2-(piperidin-3-ylamino)pyrimidin-4-yl)pyridin-2-yl)oxy)naphthalen-1-yl)-1-phenylmethanesulfonamide hydrochloride], 21 nM. The same measure, in the same setting: with `Cc1ccc2c(NC[C@@H](O)C(F)(F)F)cccc2c1Oc1ncccc1-c1ccnc(N[C@H]2CCCNC2)n1` [Example 298, (R)-1,1,1-Trifluoro-3-((6-methyl-5-((3-(2-((S)-piperidin-3-ylamino)pyrimidin-4-yl)pyridin-2-yl)oxy)naphthalen-1-yl)amino)propan-2-ol] the figure was 67.2 nM; with `Cc1ccc2c(NC(=O)[C@@H]3C[C@@]3(F)c3ccccc3)cccc2c1Oc1ncccc1-c1ccnc(N[C@H]2CCCNC2)n1` (single isomer, unassigned) [Example 226], 223 nM. For the molecule `Cc1ccc2c(NC(=O)[C@@H]3C[C@@H]3C)cccc2c1Oc1ncccc1-c1ccnc(N[C@H]2CCCNC2)n1` (single isomer, unassigned) [Example 231], the IC50 was 53 nM and 33.3 nM. On the same count and under the same terms, in the case of `Cc1ccc2c(NC(=O)CC(C)(C)C)c(F)ccc2c1Oc1ncccc1-c1ccnc(N[C@H]2CCCNC2)n1` [Example 275, (S)—N-(2-Fluoro-6-methyl-5-((3-(2-(piperidin-3-ylamino)pyrimidin-4-yl)pyridin-2-yl)oxy)naphthalen-1-yl)-3,3-dimethylbutanamide] it was 75 nM. On the same count and under the same terms, with `Cc1ccc2c(NC3CCCC3O)cccc2c1Oc1ncccc1-c1ccnc(N[C@H]2CCCNC2)n1` (mixture of isomers) [Example 383, anti-2-((6-Methyl-5-((3-(2-((S)-piperidin-3-ylamino)pyrimidin-4-yl)pyridin-2-yl)oxy)naphthalen-1-yl)amino)cyclopentanol] the figure was 231 nM.

On to `Cc1ccc2c(N3CCCS3(=O)=O)cccc2c1Oc1ncccc1-c1ccnc(N[C@H]2CCCNC2)n1` [Example 194, (S)-2-(6-Methyl-5-((3-(2-(piperidin-3-ylamino)pyrimidin-4-yl)pyridin-2-yl)oxy)naphthalen-1-yl)isothiazolidine 1,1-dioxide], for which the IC50 amounted to 313 nM. Turning to `CO[C@H]1CNC[C@@H](Nc2nccc(-c3cccnc3Oc3c(C)ccc4c(NS(=O)(=O)Cc5ccc(Cl)cc5)cccc34)n2)C1` (single isomer, unassigned) [Example 205], the half-inhibitory concentration (IC50) was determined as 130 nM. On the same count and under the same terms, with `Cc1ccc2c(NCC(C)(C)O)cccc2c1Oc1ncccc1-c1ccnc(N[C@H]2CCCNC2)n1` [Example 306, (S)-2-Methyl-1-((6-methyl-5-((3-(2-(piperidin-3-ylamino)pyrimidin-4-yl)pyridin-2-yl)oxy)naphthalen-1-yl)amino)propan-2-ol] the figure was 240 nM.

Consider `CC[C@H](C)C(=O)Nc1cccc2c(Oc3ncccc3-c3ccnc(N[C@H]4CCCNC4)n3)c(C)ccc12` [Example 203, (S)-2-methyl-N-(6-methyl-5-((3-(2-(((S)-piperidin-3-yl)amino)pyrimidin-4-yl)pyridin-2-yl)oxy)naphthalen-1-yl)butanamide], for which the IC50 amounted to 161 nM. The same measure, in the same setting: in the case of `Cc1ccc2c(NC(=O)[C@@H]3CC3(F)F)cccc2c1Oc1ncccc1-c1ccnc(N[C@H]2CCCNC2)n1` (single isomer, unassigned) [Example 180] it was 213 nM; in that of `Cc1ccc2c(NC(=O)C3(C)CC3)c(F)ccc2c1Oc1ncccc1-c1ccnc(N[C@H]2CCCNC2)n1` [Example 365, (S)—N-(2-Fluoro-6-methyl-5-((3-(2-(piperidin-3-ylamino)pyrimidin-4-yl)pyridin-2-yl)oxy)naphthalen-1-yl)-1-methylcyclopropanecarboxamide], 438 nM.

In the case of `Cc1ccc2c(NC(=O)[C@H]3C[C@@H]3C)cccc2c1Oc1ncccc1-c1ccnc(N[C@H]2CCCNC2)n1` [Example 234, (1S,2S)-2-Methyl-N-(6-methyl-5-((3-(2-(((S)-piperidin-3-yl)amino)pyrimidin-4-yl)pyridin-2-yl)oxy)naphthalen-1-yl)cyclopropane-1-carboxamide], the IC50 worked out at 111 nM. Same read-out and setting: with `Cc1ccc2c(NC(=O)CC(C)(C)C)cccc2c1Oc1ncccc1-c1ccnc(N[C@H]2CCCNC2)n1` [Example 198, (S)-3,3-Dimethyl-N-(6-methyl-5-((3-(2-(piperidin-3-ylamino)pyrimidin-4-yl)pyridin-2-yl)oxy)naphthalen-1-yl)butanamide] the figure was 161 nM. The same measure, in the same setting: in the case of `Cc1ccc2c(NC[C@H](O)C(F)(F)F)cccc2c1Oc1ncccc1-c1ccnc(N[C@@H]2CNC[C@H](C)C2)n1` [Example 321, (S)-1,1,1-Trifluoro-3-((6-methyl-5-((3-(2-(((3S,5R)-5-methylpiperidin-3-yl)amino)pyrimidin-4-yl)pyridin-2-yl)oxy)naphthalen-1-yl)amino)propan-2-ol] it was 7.36 nM; in that of `Cc1ccc2c(NCCC(F)(F)F)cccc2c1Oc1ncccc1-c1ccnc(N[C@H]2CCCNC2)n1` [Example 348, (S)-4-(2-((2-Methyl-5-((3,3,3-trifluoropropyl)amino)naphthalen-1-yl)oxy)pyridin-3-yl)-N-(piperidin-3-yl)pyrimidin-2-amine], 79 nM.

The same experiment, now with this note: Table 2; read-out: XBP1s-luc 293 LUC (IC50).
As for `Cc1ccc2c(NS(=O)(=O)Cc3ccc(C(F)F)cc3)c(F)ccc2c1Oc1ncccc1-c1ccnc(N[C@H]2CCCNC2)n1` [Example 438, (S)-1-(4-(Difluoromethyl)phenyl)-N-(2-fluoro-6-methyl-5-((3-(2-(piperidin-3-ylamino)pyrimidin-4-yl)pyridin-2-yl)oxy)naphthalen-1-yl)methanesulfonamide hydrochloride], the IC50 was found to be 5 nM.

On to `Cc1ccc2c(NS(=O)(=O)N(C)CC(F)(F)F)c(F)ccc2c1Oc1ncccc1-c1ccnc(N[C@H]2CCCNC2)n1` [Example 427, 4-[2-[[6-Fluoro-2-methyl-5-[[methyl(2,2,2-trifluoroethyl)sulfamoyl]amino]-1-naphthyl]oxy]-3-pyridyl]-2-[[(3S)-3-piperidyl]amino]pyrimidine hydrochloride], for which the IC50 stood at 6 nM. The same measure, in the same setting: with `Cc1ccc2c(NS(=O)(=O)CCC(C)(F)F)c(F)ccc2c1Oc1ncccc1-c1ccnc(N[C@@H]2CNC[C@H](C)C2)n1` [Example 485, 3,3-Difluoro-N-[2-fluoro-6-methyl-5-[[3-[2-[[(3S,5R)-5-methyl-3-piperidyl]amino]pyrimidin-4-yl]-2-pyridyl]oxy]-1-naphthyl]butane-1-sulfonamide hydrochloride] the figure was 6 nM; with `Cc1ccc2c(NS(=O)(=O)CCC3CC3)c(F)ccc2c1Oc1ncccc1-c1ccnc(N[C@H]2CCCNC2)n1` [Example 399, (S)-2-Cyclopropyl-N-(2-fluoro-6-methyl-5-((3-(2-(piperidin-3-ylamino)pyrimidin-4-yl)pyridin-2-yl)oxy)naphthalen-1-yl)ethanesulfonamide hydrochloride], 72 nM; with `COc1cccc(CS(=O)(=O)Nc2c(F)ccc3c(Oc4ncccc4-c4ccnc(N[C@H]5CCCNC5)n4)c(C)ccc23)c1` [Example 429, (S)—N-(2-Fluoro-6-methyl-5-((3-(2-(piperidin-3-ylamino)pyrimidin-4-yl)pyridin-2-yl)oxy)naphthalen-1-yl)-1-(3-methoxyphenyl)methanesulfonamide hydrochloride], 5 nM.

Source of the values: US10968203B2, “Pyrimidinyl-pyridyloxy-naphthyl compounds and methods of treating IRE1-related diseases and disorders” (Genentech, Inc., priority 2017, dated 2021).
